One test relates to L1210. The test is described as follows: Cytotoxicity against mouse L1210 cells. Type of test: functional, cell-based.
For another test, the system named is Staphylococcus aureus. The test is described as follows: Antimicrobial activity against Staphylococcus aureus at 100 ug/disk. Type of test: functional. The note with it: read-out: IZ.

The structures appear in SMILES notation. ≈ marks a conversion by molar mass, not a printed value.

One may read the IC50 as the concentration that inhibits the measured activity by half. Read a high IC50 as lower potency.

The molecule `COC1=C(C)C(=O)c2ccnc(CO)c2C1=O` [RENIEROL] returned an IC50 in the test with L1210 of 3 µg/mL (≈ 12.9 µM). In the test on Staphylococcus aureus, the zone of inhibition at 100 µg/disc is 10 mm.

Values taken from ChEMBL document CHEMBL1150725, “Cytotoxic and antimicrobial alkaloids from the Fijian sponge Xestospongia caycedoi” (J Nat Prod, 1987).
